Source: ChEMBL document CHEMBL5696442, “Discovery of type II inhibitors of TGFβ-activated kinase 1 (TAK1) and mitogen-activated protein kinase kinase kinase kinase 2 (MAP4K2)” (J Med Chem, 2015)

Experiments:
[1] = target: Tyrosine-protein kinase JAK1 (Homo sapiens) (UniProt P23458); experiment: Inhibition of JAK1 domain ACT labeling site in human Huh-7 cell lysate at 1 uM by KiNativ Profiling analysis relative to control; assay type: subcellular
[2] = tested on: Tyrosine-protein kinase ABL1 (Homo sapiens), P00519 [F317I]; experiment: Inhibition of ABL1 F317I mutant (unknown origin) at 10 uM by Ambit Kinomescan binding assay relative to control
[3] = target: Protein kinase C epsilon type (Homo sapiens) (UniProt Q02156); experiment: Inhibition of PRKCE (unknown origin) at 10 uM by Ambit Kinomescan binding assay relative to control
[4] = target: T1, Mitogen-activated protein kinase kinase kinase kinase 2 (Homo sapiens) (UniProt Q12851); experiment: Inhibition of MAP4K2 (GCK) Lys2 labeling site in human A-375 cells at 5 uM by KiNativ Profiling analysis relative to control; assay type: cell-based
T1 sequence (whole entry): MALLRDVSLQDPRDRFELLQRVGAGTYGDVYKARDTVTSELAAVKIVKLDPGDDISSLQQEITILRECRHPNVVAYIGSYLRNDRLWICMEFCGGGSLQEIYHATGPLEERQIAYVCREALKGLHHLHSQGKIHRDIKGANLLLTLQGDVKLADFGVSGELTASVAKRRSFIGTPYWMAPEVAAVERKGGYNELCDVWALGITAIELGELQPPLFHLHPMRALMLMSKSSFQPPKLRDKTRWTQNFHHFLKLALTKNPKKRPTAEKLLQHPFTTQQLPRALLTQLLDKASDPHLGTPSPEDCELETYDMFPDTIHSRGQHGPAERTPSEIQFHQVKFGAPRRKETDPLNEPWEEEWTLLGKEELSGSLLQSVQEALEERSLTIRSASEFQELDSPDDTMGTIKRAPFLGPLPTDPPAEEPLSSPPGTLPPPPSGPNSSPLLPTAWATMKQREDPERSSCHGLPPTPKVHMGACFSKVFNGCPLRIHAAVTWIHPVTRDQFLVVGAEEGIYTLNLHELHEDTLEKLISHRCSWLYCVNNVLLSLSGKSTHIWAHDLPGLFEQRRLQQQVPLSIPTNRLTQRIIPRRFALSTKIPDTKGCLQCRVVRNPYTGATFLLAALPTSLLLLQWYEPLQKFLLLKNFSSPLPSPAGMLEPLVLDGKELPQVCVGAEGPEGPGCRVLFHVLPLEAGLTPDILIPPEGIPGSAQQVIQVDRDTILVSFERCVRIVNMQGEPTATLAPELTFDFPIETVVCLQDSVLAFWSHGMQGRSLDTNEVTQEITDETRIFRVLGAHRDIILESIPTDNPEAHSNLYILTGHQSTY

[5] = target: Ribosomal protein S6 kinase alpha-3 (Homo sapiens) (UniProt P51812); experiment: Inhibition of RSK2 Domain 1 ACT labeling site harbouring LTDFGLSKESIDHEKK in human Huh-7 cells at 10 uM by KiNativ Profiling analysis relative to control; assay type: cell-based
[6] = target: STE20-like serine/threonine-protein kinase (Homo sapiens) (UniProt Q9H2G2); experiment: Inhibition of SLK (unknown origin) at 10 uM by Ambit Kinomescan binding assay relative to control; values are per cent of control
[7] = Inhibition of KHS1 (unknown origin) Lys1 labeling site by KiNativ Profiling analysis; design: species or system Homo sapiens
[8] = target: Epidermal growth factor receptor (Homo sapiens) (UniProt P00533); experiment: Inhibition of EGFR (unknown origin) at 1 uM by Ambit Kinomescan binding assay relative to control
[9] = target: Dual specificity testis-specific protein kinase 1 (Homo sapiens) (UniProt Q15569); experiment: Inhibition of TESK1 (unknown origin) at 1 uM by Ambit Kinomescan binding assay relative to control
[10] = target: Wee1-like protein kinase (Homo sapiens) (UniProt P30291); experiment: Inhibition of Wee1 Lys2 labeling site in human A-375 cells at 5 uM by KiNativ Profiling analysis relative to control; assay type: cell-based
[11] = target: T2, Serine/threonine-protein kinase LATS2 (Homo sapiens) (UniProt Q9NRM7); experiment: Inhibition of LATS2 Lys1 labeling site in human Huh-7 cell lysate at 1 uM by KiNativ Profiling analysis relative to control; assay type: subcellular
T2 sequence (whole entry): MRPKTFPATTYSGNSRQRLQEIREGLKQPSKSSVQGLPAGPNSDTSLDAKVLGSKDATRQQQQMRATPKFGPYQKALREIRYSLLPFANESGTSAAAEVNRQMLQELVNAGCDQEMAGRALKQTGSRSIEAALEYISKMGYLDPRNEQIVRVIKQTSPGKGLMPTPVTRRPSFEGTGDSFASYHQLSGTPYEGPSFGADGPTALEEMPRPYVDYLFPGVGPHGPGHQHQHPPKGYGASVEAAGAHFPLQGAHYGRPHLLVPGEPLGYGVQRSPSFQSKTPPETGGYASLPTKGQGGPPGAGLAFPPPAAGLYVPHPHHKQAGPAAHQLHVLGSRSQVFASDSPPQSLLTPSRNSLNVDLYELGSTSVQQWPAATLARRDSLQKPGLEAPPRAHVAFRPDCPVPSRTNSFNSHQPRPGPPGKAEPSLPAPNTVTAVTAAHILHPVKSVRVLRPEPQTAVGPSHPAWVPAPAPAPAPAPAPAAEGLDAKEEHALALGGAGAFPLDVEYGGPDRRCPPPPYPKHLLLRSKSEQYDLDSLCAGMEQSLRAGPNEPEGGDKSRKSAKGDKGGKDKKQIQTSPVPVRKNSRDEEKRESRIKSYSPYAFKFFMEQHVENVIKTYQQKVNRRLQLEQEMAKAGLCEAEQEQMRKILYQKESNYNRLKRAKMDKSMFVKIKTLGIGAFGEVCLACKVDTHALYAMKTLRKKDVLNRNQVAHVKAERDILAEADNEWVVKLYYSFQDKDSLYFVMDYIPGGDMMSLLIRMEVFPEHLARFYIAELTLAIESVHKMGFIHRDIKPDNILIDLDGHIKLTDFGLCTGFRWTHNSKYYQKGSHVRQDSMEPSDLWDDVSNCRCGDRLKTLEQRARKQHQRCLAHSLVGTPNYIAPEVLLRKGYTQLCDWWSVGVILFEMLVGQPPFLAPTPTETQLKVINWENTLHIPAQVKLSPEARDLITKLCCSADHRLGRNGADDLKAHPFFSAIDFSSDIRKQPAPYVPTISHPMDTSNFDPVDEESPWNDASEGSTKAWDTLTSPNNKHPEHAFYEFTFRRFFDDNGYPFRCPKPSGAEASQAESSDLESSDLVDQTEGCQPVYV

Chain of STE20-like serine/threonine-protein kinase (Homo sapiens) (Q9H2G2 whole entry, looked up): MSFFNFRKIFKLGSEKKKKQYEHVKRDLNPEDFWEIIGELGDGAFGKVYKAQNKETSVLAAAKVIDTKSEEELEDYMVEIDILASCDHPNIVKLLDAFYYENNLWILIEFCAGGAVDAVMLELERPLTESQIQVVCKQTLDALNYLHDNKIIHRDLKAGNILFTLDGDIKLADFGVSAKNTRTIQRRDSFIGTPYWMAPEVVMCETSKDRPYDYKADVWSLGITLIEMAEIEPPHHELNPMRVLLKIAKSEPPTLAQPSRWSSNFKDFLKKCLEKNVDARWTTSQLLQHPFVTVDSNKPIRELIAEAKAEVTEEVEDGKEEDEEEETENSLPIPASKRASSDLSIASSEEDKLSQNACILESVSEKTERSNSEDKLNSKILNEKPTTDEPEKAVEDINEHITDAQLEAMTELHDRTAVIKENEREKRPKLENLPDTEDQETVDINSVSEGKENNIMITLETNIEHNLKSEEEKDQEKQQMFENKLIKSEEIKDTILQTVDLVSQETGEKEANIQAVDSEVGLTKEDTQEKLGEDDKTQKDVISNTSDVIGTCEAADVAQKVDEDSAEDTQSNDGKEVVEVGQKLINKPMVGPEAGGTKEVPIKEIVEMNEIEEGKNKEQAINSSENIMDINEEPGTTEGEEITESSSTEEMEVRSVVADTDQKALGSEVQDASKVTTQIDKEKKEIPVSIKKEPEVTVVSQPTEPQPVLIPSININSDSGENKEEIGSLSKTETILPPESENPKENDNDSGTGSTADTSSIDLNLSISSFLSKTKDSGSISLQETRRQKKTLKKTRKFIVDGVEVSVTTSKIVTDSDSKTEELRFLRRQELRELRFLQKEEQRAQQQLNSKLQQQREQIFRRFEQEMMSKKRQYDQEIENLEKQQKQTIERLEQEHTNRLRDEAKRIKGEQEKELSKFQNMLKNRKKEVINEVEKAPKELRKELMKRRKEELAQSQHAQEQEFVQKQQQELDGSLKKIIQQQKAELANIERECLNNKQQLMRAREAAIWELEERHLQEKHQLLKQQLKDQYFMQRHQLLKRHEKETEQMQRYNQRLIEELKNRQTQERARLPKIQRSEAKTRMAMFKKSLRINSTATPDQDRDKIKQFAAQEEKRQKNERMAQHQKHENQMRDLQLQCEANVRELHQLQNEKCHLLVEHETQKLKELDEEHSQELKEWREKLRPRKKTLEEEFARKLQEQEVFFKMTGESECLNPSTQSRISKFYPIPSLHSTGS
Chain of Tyrosine-protein kinase ABL1 (Homo sapiens), P00519 [F317I] (P00519 whole entry F317I): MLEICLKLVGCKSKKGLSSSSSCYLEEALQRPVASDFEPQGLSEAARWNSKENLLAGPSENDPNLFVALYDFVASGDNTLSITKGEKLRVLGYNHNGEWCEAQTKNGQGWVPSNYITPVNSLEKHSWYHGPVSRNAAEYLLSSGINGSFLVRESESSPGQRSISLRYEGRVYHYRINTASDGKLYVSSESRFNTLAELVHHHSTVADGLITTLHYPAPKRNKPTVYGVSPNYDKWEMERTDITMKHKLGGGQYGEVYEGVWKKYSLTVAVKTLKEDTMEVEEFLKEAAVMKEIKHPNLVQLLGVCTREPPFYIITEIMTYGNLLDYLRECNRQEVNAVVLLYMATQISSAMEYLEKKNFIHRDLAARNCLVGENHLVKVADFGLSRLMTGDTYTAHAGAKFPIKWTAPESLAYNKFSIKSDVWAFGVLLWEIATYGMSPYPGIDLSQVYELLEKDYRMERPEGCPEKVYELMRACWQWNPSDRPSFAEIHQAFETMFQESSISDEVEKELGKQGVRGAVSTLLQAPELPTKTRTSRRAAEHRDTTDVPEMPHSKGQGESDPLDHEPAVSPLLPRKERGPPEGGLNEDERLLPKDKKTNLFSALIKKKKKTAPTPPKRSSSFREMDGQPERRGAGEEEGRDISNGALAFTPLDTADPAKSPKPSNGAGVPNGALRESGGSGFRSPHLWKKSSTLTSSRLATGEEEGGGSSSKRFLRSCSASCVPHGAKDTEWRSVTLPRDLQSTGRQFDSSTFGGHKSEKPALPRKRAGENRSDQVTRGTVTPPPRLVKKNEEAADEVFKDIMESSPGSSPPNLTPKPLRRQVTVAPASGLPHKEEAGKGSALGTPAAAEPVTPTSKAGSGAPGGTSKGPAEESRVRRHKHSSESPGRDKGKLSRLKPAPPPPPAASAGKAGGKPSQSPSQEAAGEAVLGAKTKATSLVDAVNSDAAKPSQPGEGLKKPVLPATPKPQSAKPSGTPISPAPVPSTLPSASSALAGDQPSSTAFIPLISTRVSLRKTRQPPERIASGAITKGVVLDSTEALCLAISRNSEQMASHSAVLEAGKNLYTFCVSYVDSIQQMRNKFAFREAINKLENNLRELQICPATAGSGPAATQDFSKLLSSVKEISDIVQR
Chain of Epidermal growth factor receptor (Homo sapiens) (P00533 whole entry): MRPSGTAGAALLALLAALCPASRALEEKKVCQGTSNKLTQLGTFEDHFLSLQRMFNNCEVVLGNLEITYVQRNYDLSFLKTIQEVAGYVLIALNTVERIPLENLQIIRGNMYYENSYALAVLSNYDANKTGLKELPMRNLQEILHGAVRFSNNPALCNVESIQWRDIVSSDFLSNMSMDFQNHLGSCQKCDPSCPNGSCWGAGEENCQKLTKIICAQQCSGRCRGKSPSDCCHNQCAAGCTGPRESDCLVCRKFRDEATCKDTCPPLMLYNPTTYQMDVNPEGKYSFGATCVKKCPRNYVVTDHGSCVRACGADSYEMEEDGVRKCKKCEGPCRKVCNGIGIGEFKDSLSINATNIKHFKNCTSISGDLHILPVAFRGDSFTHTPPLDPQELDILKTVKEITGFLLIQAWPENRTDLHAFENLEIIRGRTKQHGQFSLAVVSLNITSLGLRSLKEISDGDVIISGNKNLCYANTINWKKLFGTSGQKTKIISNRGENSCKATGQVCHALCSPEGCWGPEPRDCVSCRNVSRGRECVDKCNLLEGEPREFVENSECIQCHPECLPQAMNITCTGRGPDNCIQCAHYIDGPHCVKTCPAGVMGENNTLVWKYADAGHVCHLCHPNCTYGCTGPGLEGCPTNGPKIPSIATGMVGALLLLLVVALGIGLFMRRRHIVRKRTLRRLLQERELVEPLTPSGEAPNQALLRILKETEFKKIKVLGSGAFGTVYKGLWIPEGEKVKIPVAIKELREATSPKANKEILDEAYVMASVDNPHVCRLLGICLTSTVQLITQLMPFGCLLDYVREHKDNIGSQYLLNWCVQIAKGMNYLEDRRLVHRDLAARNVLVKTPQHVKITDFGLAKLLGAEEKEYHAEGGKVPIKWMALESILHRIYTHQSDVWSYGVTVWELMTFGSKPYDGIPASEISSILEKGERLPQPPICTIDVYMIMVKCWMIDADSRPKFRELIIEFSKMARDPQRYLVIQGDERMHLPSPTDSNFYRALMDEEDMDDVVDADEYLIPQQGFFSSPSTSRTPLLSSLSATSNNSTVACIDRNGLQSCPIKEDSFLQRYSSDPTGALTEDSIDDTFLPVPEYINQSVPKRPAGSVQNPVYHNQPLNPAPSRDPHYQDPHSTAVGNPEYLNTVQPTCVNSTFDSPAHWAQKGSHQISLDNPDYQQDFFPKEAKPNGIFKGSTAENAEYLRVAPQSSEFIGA
Chain of Protein kinase C epsilon type (Homo sapiens) (Q02156 whole entry): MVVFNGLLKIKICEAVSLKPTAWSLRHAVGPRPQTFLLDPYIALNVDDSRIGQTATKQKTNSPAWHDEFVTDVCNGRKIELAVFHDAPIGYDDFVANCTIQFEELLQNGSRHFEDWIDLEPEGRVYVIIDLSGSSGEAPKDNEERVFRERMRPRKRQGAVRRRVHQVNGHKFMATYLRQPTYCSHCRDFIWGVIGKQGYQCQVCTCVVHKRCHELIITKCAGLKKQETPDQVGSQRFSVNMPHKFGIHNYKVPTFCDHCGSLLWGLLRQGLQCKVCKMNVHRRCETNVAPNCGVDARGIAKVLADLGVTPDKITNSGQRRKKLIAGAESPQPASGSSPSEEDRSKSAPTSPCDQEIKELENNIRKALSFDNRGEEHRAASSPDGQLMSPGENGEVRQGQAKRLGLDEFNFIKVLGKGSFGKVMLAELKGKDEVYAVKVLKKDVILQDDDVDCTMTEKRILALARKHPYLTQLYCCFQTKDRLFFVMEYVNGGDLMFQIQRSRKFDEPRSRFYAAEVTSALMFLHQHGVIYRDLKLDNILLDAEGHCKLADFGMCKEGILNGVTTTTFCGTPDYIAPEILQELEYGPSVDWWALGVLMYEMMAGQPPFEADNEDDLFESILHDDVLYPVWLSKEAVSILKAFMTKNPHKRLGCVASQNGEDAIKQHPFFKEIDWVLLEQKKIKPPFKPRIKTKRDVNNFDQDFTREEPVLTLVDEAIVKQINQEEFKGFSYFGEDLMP
Chain of Dual specificity testis-specific protein kinase 1 (Homo sapiens) (Q15569 whole entry, looked up): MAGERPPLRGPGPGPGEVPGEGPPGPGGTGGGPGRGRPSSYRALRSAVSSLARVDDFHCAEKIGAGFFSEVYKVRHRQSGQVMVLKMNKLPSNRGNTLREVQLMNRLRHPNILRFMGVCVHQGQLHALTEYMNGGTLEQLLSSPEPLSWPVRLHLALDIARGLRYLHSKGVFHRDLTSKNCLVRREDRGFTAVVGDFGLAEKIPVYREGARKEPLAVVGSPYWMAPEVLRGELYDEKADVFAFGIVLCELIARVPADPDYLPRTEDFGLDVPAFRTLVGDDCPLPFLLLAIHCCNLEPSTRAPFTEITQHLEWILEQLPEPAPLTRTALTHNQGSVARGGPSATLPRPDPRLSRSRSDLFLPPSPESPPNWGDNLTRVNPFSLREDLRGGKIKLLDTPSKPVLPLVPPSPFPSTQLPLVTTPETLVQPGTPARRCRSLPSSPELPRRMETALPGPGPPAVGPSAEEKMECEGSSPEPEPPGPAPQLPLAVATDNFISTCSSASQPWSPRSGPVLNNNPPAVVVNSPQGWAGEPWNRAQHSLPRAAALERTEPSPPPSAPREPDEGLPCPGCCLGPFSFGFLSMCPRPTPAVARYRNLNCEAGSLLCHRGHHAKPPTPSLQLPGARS

Work on CNc1cc(Oc2cc(C(=O)Nc3cc(-n4cnc(C)c4)cc(C(F)(F)F)c3)ccc2C)ncn1 yielded an inhibition [1] of 4.9%.

For CCN1CCN(Cc2ccc(NC(=O)c3ccc(C)c(Oc4ccnc5[nH]ccc45)c3)cc2C(F)(F)F)CC1, the inhibition [2] was 0.05%, the inhibition [3] was 20% and the inhibition [4] was 96.6%. It also gave an inhibition [5] of -8% and a residual activity [6] of 2%.

Work on CCN1CCN(Cc2ccc(NC(=O)c3ccc(C)c(/C=C/c4cnc5[nH]ccc5c4OC)c3)cc2C(F)(F)F)CC1 yielded an IC50 [7] of 1.2 µM, an inhibition [8] of 7.6% and an inhibition [9] of 100%. For the same compound, the inhibition [10] was -0.1%.

Compound CNc1cc(Oc2cc(C(=O)Nc3cc(N4CCN(C)CC4)cc(C(F)(F)F)c3)ccc2C)ncn1 has an inhibition [11] of -3.8%.
